Key:
[1] = molecular target: T1, Trxyd1 (D-xylose dehydrogenase, XDH) (Trichoderma reesei, UniProt G0R8G7); assay: NAD+ or NADP+ reduction at […] nm, crude mycelial extract of overexpressing strain; type: biochemical; settings: 100 mM D-xylose, 2 mM NAD+ or NADP+, 2 mM MgCl2, 100 mM Tris-HCl pH 8.0, 30 °C
T1 construct: gene TRIREDRAFT_53673; full-length gene from cDNA, inserted at pck locus of M. thermophila JG207 delta-Mtxyl1 (DF1309); crude mycelial extract
T1 sequence (G0R8G7 1-391): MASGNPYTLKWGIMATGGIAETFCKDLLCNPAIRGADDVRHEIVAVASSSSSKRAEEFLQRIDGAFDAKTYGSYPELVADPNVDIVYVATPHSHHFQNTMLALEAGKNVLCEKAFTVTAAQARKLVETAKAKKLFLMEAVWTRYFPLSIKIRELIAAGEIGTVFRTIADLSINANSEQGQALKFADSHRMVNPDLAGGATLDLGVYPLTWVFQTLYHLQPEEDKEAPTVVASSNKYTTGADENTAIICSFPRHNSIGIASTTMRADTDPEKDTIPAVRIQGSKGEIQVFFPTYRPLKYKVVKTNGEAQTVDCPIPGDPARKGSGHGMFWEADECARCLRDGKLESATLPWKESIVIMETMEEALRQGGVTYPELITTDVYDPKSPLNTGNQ

[2] = molecular target: T2, Mtxyd1 (native D-xylose dehydrogenase, XDH) (Thermothelomyces thermophilus, UniProt G2QN15); assay: NADP+ reduction at […] nm, crude mycelial extract of overexpressing strain; type: biochemical; settings: 100 mM D-xylose, 2 mM NADP+, 2 mM MgCl2, 100 mM Tris-HCl pH 8.0, 30 °C
T2 construct: gene MYCTH_112471; full-length native gene from cDNA, inserted at pck locus of M. thermophila JG207 delta-Mtxyl1 (DF1310); crude mycelial extract
T2 sequence (G2QN15 1-395): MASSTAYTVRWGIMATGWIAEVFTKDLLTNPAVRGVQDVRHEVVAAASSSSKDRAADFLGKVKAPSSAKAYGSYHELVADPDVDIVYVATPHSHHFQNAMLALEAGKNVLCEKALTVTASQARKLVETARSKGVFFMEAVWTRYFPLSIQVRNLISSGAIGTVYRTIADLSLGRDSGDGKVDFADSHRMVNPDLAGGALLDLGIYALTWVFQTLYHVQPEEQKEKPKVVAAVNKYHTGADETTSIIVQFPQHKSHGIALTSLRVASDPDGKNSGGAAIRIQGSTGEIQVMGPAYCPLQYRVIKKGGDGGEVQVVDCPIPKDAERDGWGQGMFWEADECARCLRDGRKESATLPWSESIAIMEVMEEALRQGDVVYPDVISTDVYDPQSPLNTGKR

Row | Compound | specific activity [1] | specific activity [2]
1 | OC1OC[C@@H](O)[C@H](O)[C@H]1O (stereo partly drawn) [D-xylose] | The enzymatic activity of XDH in strains DF1309 and DF1310 was verified | XDH encoded by endogenous Mtxyd1 owned the highest activity
2 | NC(=O)c1ccc[n+]([C@@H]2O[C@H](COP(=O)(O)OP(=O)(O)OC[C@H]3O[C@@H](n4cnc5c(N)ncnc54)[C@H](OP(=O)(O)O)[C@@H]3O)[C@@H](O)[C@H]2O)c1 [NADP^+] | – | When using NADP^+ as a cofactor, XDH encoded by endogenous Mtxyd1 owned the highest activity
